According to ChEMBL document CHEMBL4706476, “Novel Tetrahydropyrido[4,3-d]pyrimidines as Potent Inhibitors of Chaperone Heat Shock Protein 90” (J Med Chem, 2016):
≈ marks a conversion by molar mass, not a printed value. Calls of active or inactive are those of the source. No cut-off for these calls is given here.

Columns and labels:
[1] = system: A549; experiment: Antiproliferative activity against human A549 assessed as reduction in cell viability incubated for 72 hrs by MTT assay; assay type: functional, cell-based; conditions: A549, 72 h
[2] = Half-life in rat at 10 mg/kg, iv measured upto 24 hrs by LC-MS/MS analysis; assay type: ADME, organism-based; conditions: in vivo
[3] = AUC (0 to t) in rat at 10 mg/kg, iv measured upto 24 hrs by LC-MS/MS analysis; assay type: ADME, organism-based; design: route intravenous, dose 10 mg/kg, time <=24; conditions: in vivo
[4] = Apparent clearance during terminal phase in rat at 50 mg/kg, po measured upto 24 hrs by LC-MS/MS analysis; assay type: ADME, organism-based; conditions: in vivo, read-out: CLz/F (converted)
[5] = Drug distribution in liver of mouse xenografted with human HCT-116 cells at 60 mg/kg, iv by LC-MS/MS analysis; conditions: in vivo
[6] = system: K562; experiment: Antiproliferative activity against human K562 assessed as reduction in cell viability incubated for 72 hrs by MTT assay; assay type: functional, cell-based; conditions: K562, 72 h
[7] = Permeability of the compound at pH 7.4 by PAMPA; assay type: ADME; conditions: read-out: permeability
[8] = system: MCF7; experiment: cells; conditions: Homo sapiens, MCF7, 72 h
[9] = AUC (0 to t) in rat at 50 mg/kg, po measured upto 24 hrs by LC-MS/MS analysis; assay type: ADME, organism-based; design: route oral, dose 50 mg/kg, time <=24; conditions: in vivo
[10] = Apparent volume of distribution in rat at 10 mg/kg, iv measured upto 24 hrs by LC-MS/MS analysis; assay type: ADME, organism-based; conditions: in vivo, read-out: Vz
[11] = system: MDA-MB-468; experiment: Antiproliferative activity against human MDA-MB-468 assessed as reduction in cell viability incubated for 72 hrs by MTT assay; assay type: functional, cell-based; conditions: MDA-MB-468, 72 h
[12] = system: HCT-116; experiment: cells; conditions: Homo sapiens, HCT-116, 72 h
Description: Antiproliferative activity against human HCT-116 cells assessed as reduction in cell viability incubated for 72 hrs by MTT assay

[13] = Distribution coefficient, logD of compound at pH 7.4; assay type: physicochemical; conditions: octanol/water
[14] = Half-life in rat at 50 mg/kg, po measured upto 24 hrs by LC-MS/MS analysis; assay type: ADME, organism-based; conditions: in vivo
[15] = biological target: CYP1A2 (Homo sapiens, UniProt P05177); experiment: Inhibition of CYP1A2 in human liver microsomes at 10 uM using phenacetin as substrate preincubated for 5 mins followed by NADPH addition and measured after 20 mins by LC-MS/MS analysis relative to control; assay type: ADME; conditions: probe phenacetin, time 25 min
[16] = Oral bioavailability in rat at 50 mg/kg measured upto 24 hrs by LC-MS/MS analysis; assay type: ADME, organism-based; conditions: in vivo
[17] = Apparent clearance during terminal phase in rat at 10 mg/kg, iv measured upto 24 hrs by LC-MS/MS analysis; assay type: ADME, organism-based; conditions: in vivo
[18] = system: HepG2; experiment: Antiproliferative activity against human HepG2 assessed as reduction in cell viability incubated for 72 hrs by MTT assay; assay type: functional, cell-based; conditions: HepG2, 72 h
[19] = system: MV4-11; experiment: Antiproliferative activity against human MV4-11 assessed as reduction in cell viability incubated for 72 hrs by MTT assay; assay type: functional, cell-based; conditions: MV4-11, 72 h
[20] = system: MDA-MB-231; experiment: Antiproliferative activity against human MDA-MB-231 assessed as reduction in cell viability incubated for 72 hrs by MTT assay; assay type: functional, cell-based; conditions: MDA-MB-231, 72 h
[21] = Intrinsic clearance in human liver microsomes at 1 uM preincubated for 5 mins followed by NADPH addition and measured up to 120 mins by LC-MS/MS analysis; assay type: ADME, Microsome; conditions: 2 h, time <=125 min
[22] = system: L02; experiment: Cytotoxicity against human L02 cells assessed as reduction in cell viability incubated for 72 hrs by MTT assay; assay type: cell-based; conditions: L02, 72 h
[23] = Drug concentration in tumor of mouse xenografted with human HCT-116 cells at 60 mg/kg, iv measured at 48 hrs by LC-MS/MS analysis; conditions: in vivo
[24] = biological target: CYP2C9 (Homo sapiens, UniProt P11712); experiment: Inhibition of CYP2C9 in human liver microsomes at 10 uM using diclofenac as substrate preincubated for 5 mins followed by NADPH addition and measured after 20 mins by LC-MS/MS analysis relative to control; assay type: ADME; conditions: probe diclofenac, time 25 min
[25] = Cmax in rat at 50 mg/kg, po measured upto 24 hrs by LC-MS/MS analysis; assay type: ADME, organism-based; design: route oral, dose 50 mg/kg, time <=24; conditions: in vivo
[26] = Tmax in rat at 50 mg/kg, po measured upto 24 hrs by LC-MS/MS analysis; assay type: ADME, organism-based; conditions: in vivo
[27] = Drug distribution in spleen of mouse xenografted with human HCT-116 cells at 60 mg/kg, iv by LC-MS/MS analysis; conditions: in vivo
[28] = biological target: Endoplasmin (Homo sapiens, UniProt P14625); experiment: Displacement of FITC-geldanamycin from N-terminal GRP94 (unknown origin) after 30 mins by fluorescence polarization competitive binding assay
[29] = biological target: CYP3A4 (Homo sapiens, UniProt P08684); experiment: Inhibition of CYP3A4 in human liver microsomes at 10 uM using midazolam as substrate preincubated for 5 mins followed by NADPH addition and measured after 20 mins by LC-MS/MS analysis relative to control; assay type: ADME; conditions: probe midazolam, time 25 min
[30] = biological target: CYP2C19 (Homo sapiens, UniProt P33261); experiment: Inhibition of CYP2C19 in human liver microsomes at 10 uM using mephenytoin as substrate preincubated for 5 mins followed by NADPH addition and measured after 20 mins by LC-MS/MS analysis relative to control; conditions: probe mephenytoin
[31] = biological target: Heat shock protein HSP 90-alpha (Homo sapiens, UniProt P07900); experiment: Displacement of FITC-geldanamycin from N-terminal HSP90alpha (unknown origin) after 30 mins by fluorescence polarization competitive binding assay
[32] = system: T47D; experiment: Antiproliferative activity against human T47D assessed as reduction in cell viability incubated for 72 hrs by MTT assay; assay type: functional, cell-based
[33] = Half life in human liver microsomes at 1 uM preincubated for 5 mins followed by NADPH addition and measured up to 120 mins by LC-MS/MS analysis; assay type: ADME, Microsome; conditions: 2 h, time <=125 min
[34] = system: U2OS; experiment: Antiproliferative activity against human U2OS assessed as reduction in cell viability incubated for 72 hrs by MTT assay; assay type: functional, cell-based
[35] = Apparent volume of distribution in rat at 50 mg/kg, po measured upto 24 hrs by LC-MS/MS analysis; assay type: ADME, organism-based; conditions: in vivo
[36] = biological target: CYP2D6 (Homo sapiens, UniProt P10635); experiment: Inhibition of CYP2D6 in human liver microsomes at 10 uM using dextromethorphan as substrate preincubated for 5 mins followed by NADPH addition and measured after 20 mins by LC-MS/MS analysis relative to control; assay type: ADME; conditions: probe dextromethorphan, time 25 min
[37] = Metabolic stability in human liver microsomes assessed as parent compound remaining at 1 uM preincubated for 5 mins followed by NADPH addition and measured up to 120 mins by LC-MS/MS analysis; assay type: ADME, Microsome; conditions: 2 h, time <=125 min
[38] = system: SK-BR-3; experiment: Antiproliferative activity against human SK-BR-3 assessed as reduction in cell viability incubated for 72 hrs by MTT assay; assay type: functional, cell-based; conditions: SK-BR-3, 72 h
[39] = Ocular toxicity in Sprague-Dawley rat retina damage model assessed as induction of retinal cell death at 20 mg/kg, iv administered for 2 consecutive days by TUNEL staining based analysis; assay type: organism-based; conditions: in vivo, 48 h, time 2 day
[40] = system: BT-474; experiment: Antiproliferative activity against human BT-474 assessed as reduction in cell viability incubated for 72 hrs by MTT assay; assay type: functional, cell-based; conditions: BT-474, 72 h
[41] = system: MKN-28; experiment: Antiproliferative activity against human MKN-28 assessed as reduction in cell viability incubated for 72 hrs by MTT assay; assay type: functional, cell-based; conditions: MKN-28, 72 h
[42] = Intrinsic aqueous solubility of the compound; assay type: physicochemical
[43] = Drug distribution in blood of mouse xenografted with human HCT-116 cells at 60 mg/kg, iv by LC-MS/MS analysis; conditions: in vivo
[44] = system: Rattus norvegicus; experiment: Ex vivo inhibition of HSP90 in Sprague-Dawley rat assessed as up regulation of HSP70 expression in retina at 10 mg/kg, iv administered for 2 consecutive days and measured 24 hrs post last dose by Western blot analysis; assay type: functional, organism-based
[45] = Ocular toxicity in Sprague-Dawley rat retina damage model assessed as induction of retinal cell death at 10 mg/kg, iv administered for 2 consecutive days by TUNEL staining based analysis; assay type: organism-based; conditions: in vivo, 48 h, time 2 day
[46] = system: Rattus norvegicus; experiment: Ex vivo inhibition of HSP90 in Sprague-Dawley rat assessed as up regulation of HSP70 expression in retina at 10 mg/kg, iv administered for 2 consecutive days and measured 24 hrs post last dose by immunohistochemistry analysis; assay type: functional, organism-based; conditions: time 3.0 day

Sequence of CYP2D6 (P10635 whole entry): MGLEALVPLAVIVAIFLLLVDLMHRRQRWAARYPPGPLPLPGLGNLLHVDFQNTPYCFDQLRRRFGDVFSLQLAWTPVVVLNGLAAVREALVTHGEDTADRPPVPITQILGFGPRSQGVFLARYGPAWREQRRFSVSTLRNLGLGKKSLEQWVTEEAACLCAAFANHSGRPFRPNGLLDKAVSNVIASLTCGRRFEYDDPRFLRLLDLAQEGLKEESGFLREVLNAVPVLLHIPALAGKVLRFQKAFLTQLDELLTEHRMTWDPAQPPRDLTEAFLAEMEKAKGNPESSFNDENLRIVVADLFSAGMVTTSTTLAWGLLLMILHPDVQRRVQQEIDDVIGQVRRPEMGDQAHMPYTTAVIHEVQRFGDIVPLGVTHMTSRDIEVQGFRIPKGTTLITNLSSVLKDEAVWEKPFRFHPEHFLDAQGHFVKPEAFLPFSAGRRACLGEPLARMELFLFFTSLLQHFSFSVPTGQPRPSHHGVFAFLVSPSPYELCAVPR
Sequence of CYP2C9 (P11712 whole entry): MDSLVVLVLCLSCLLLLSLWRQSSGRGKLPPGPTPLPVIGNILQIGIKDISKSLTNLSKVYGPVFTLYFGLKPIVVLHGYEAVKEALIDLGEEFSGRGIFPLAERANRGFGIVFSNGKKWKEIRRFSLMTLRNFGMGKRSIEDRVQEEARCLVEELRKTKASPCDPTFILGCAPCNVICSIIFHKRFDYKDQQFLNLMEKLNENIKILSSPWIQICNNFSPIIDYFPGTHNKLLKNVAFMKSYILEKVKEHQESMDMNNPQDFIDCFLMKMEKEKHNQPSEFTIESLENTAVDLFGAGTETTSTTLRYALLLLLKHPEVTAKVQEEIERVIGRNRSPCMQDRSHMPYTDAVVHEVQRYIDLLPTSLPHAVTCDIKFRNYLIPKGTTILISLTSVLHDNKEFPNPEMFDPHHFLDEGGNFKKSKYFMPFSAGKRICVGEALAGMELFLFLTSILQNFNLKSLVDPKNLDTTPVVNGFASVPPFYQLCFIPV
Sequence of Endoplasmin (P14625 whole entry): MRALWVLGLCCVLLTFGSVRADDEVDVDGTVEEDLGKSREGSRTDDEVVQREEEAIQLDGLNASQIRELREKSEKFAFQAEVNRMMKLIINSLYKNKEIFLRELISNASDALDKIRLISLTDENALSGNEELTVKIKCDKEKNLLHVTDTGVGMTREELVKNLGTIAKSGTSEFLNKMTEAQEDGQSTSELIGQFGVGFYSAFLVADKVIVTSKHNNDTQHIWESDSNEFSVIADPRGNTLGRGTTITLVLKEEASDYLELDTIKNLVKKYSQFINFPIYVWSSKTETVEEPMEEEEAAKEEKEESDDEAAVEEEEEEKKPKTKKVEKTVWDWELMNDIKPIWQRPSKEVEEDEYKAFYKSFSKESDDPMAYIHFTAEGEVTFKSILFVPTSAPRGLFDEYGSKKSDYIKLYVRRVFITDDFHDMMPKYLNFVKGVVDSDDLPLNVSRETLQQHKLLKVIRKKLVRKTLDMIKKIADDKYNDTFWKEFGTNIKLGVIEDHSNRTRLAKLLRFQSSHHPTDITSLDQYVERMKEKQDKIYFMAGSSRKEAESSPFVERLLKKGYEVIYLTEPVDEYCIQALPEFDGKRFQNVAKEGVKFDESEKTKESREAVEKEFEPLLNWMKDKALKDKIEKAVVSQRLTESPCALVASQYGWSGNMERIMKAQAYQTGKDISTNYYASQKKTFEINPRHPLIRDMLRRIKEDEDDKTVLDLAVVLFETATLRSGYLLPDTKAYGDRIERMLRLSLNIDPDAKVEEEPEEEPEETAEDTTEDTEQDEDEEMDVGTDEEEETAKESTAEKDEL
Sequence of CYP1A2 (P05177 whole entry): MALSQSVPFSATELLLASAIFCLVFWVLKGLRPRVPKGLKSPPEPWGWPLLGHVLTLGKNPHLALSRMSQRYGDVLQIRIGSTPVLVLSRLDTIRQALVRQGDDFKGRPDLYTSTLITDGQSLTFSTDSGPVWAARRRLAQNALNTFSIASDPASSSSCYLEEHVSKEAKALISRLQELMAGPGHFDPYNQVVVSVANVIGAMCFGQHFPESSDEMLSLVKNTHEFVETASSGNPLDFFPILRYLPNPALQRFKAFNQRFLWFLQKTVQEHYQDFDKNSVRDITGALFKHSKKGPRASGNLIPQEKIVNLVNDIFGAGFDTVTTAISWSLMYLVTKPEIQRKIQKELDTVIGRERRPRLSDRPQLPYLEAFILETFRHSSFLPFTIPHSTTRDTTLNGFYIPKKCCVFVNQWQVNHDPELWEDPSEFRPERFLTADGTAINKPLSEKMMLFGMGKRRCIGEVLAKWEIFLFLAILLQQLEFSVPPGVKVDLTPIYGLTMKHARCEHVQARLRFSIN
Sequence of CYP2C19 (P33261 whole entry): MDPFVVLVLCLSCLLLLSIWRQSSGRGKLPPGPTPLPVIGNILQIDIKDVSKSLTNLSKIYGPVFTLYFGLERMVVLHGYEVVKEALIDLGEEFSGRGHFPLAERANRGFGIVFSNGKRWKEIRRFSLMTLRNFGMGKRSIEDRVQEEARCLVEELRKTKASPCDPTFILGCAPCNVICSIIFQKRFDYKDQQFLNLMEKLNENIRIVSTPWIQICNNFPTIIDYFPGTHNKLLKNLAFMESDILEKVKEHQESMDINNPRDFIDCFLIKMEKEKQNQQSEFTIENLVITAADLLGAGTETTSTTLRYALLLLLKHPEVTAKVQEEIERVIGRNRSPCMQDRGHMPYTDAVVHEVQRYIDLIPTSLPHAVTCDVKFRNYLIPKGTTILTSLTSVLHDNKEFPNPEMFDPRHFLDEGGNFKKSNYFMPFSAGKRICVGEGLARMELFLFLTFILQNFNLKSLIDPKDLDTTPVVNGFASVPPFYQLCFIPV
Sequence of CYP3A4 (P08684 whole entry): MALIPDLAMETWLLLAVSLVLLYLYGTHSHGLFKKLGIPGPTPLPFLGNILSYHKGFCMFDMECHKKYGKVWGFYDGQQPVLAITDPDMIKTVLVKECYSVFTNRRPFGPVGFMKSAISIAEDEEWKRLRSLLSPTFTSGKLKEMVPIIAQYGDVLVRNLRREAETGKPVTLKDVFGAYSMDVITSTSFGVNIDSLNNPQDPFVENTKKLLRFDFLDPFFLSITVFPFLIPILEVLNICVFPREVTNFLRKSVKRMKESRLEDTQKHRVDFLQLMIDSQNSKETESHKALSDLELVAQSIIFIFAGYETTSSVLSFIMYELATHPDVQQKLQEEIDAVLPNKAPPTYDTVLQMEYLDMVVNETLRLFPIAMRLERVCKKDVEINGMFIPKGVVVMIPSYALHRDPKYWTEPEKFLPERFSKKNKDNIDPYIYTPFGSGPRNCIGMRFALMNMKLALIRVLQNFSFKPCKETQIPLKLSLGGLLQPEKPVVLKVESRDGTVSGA

CCNc1nc(OCCOC)nc2c1CN(C(=O)c1cc(C(C)C)c(O)cc1O)CC2
IC50 [1]: 194 nM
half-life [2]: 3.95 h
AUC(0-t) at 24 h [3]: 1930 ng·h/mL
CL/F [4]: 2060 mL/min/kg
Drug uptake [5]: Active
IC50 [6]: 119 nM
Papp [7]: 71.5 ×10⁻⁶ cm/s
IC50 [8]: 100 nM
AUC(0-t) at 24 h [9]: 409 ng·h/mL
Vd [10]: 29.6 L/kg
IC50 [11]: 135 nM
IC50 [12]: 140 nM
logD [13]: 2.32
half-life [14]: 9.4 h
inhibition at 20 min, 10 µM [15]: 8%
bioavailability [16]: 4.23%
CLz/F [17]: 87.5 mL/min/kg
IC50 [18]: 153 nM
IC50 [19]: 27 nM
IC50 [20]: 119 nM
CLint [21]: 4.45 mL/min/kg
IC50 [22]: 34000 nM
Ct [23]: > 3 uM/L
inhibition at 20 min, 10 µM [24]: 36%
Cmax [25]: 72.6 ng/mL
Tmax [26]: 0.5 h
Drug uptake [27]: Active
IC50 [28]: 729 nM
inhibition at 20 min, 10 µM [29]: 22%
inhibition at 20 min, 10 µM [30]: 21%
IC50 [31]: 28 nM
IC50 [32]: 195 nM
t1/2 [33]: 3.53 h
IC50 [34]: 52 nM
Vz [35]: 1620.19 L/kg
inhibition at 20 min, 10 µM [36]: 48%
Stabilty [37]: 90.4%
IC50 [38]: 243 nM
Activity [39]: Non-Toxic
IC50 [40]: 95 nM
IC50 [41]: 434 nM
solubility [42]: 192 µg/mL (≈ 447 µM)
Drug uptake [43]: Active

CCNC(=O)c1noc(-c2cc(C(C)C)c(O)cc2O)c1-c1ccc(CN2CCOCC2)cc1 [LUMINESPIB]
inhibition [44]: Active
Activity [45]: Toxic
inhibition [46]: Active
